SMILES strings stand for the structures.

In US20260285888A1, “HETEROCYCLIC COMPOUND AND USE THEREOF” (OTSUKA PHARMACEUTICAL CO., LTD., priority 2023, published 2026) one finds cytotoxicity data, which are given here for 10 compounds.

A short description of the data set: in vitro. Format: cell-based, human. The conditions noted are these: human, differentiated hl-60 cells, 300 μmol/L, about 24 hours, PMA-differentiated HL-60 cells, LDH; no-treatment 0%, cell lysis buffer 100%; read-out: cytotoxicity (%) Evaluation compound results. The protocol:
An HL-60 cell line (human acute promyelocytic leukemia cells) was successively cultured in RPMI 1640 containing 20% fetal bovine serum (FBS) at 37° C. in 95% atmosphere/5% CO2. Before evaluation, the cells were pre-cultured for about 72 hours in the presence of 10 nM phorbol 12-myristate 13-acetate (PMA) to induce macrophage-like differentiation.
Evaluation compounds were dissolved in DMSO to obtain 30 mmol/L solutions (or suspensions). Each DMSO solution was diluted 100-fold with RPMI 1640 containing 2% FBS (final concentration of the compound: 300 μmol/L) to obtain a treatment solution. The culture supernatant of the differentiated HL-60 cells was removed, and each treatment solution was added and cultured for about 24 hours, followed by cytotoxicity evaluation.
The activity of lactate dehydrogenase (LDH) was measured in the treatment solutions exposed to the cells for about 24 hours by using a commercial kit (Cytotoxicity LDH Assay Kit-WST, Dojindo Laboratories) and a plate reader (Tecan Infinite M1000). The obtained measurement values were used to calculate cytotoxicity (%) as comparison values for each evaluation compound-treated group, with the no-treatment group taken as 0% and the cell lysis buffer-treated group taken as 100%. The test was conducted in triplicate in three wells each, and the average values were used as adopted values.
`CCOCC(=O)OCOP(=O)([O-])OC[N+]1(CCCCOc2ccc3ccc(=O)[nH]c3c2)CCN(c2cccc3sccc23)CC1` [EX 31, (4-(benzo[b]thiophen-4-yl)-1-(4-((2-oxo-1,2-dihydroquinolin-7-yl)oxy)butyl)piperazin-1-ium-1-yl)methyl ((2-ethoxyacetoxy)methyl) phosphate]: the cytotoxicity at 24 h, 300 µM is -8%.
Regarding `CCC(=O)OP(=O)([O-])OC[N+]1(CCCCOc2ccc3ccc(=O)[nH]c3c2)CCN(c2cccc3sccc23)CC1` [EX 148, (4-(benzothiophen-4-yl)-1-(4-((2-oxo-1H-quinolin-7-yl)oxy)butyl)piperazin-1-ium-1-yl)methyl propanoyl phosphate], the cytotoxicity at 24 h, 300 µM is -5%.
For `O=C(O)CCOP(=O)([O-])OC[N+]1(CCCCOc2ccc3ccc(=O)[nH]c3c2)CCN(c2cccc3sccc23)CC1` [EX 112, (4-(benzo[b]thiophen-4-yl)-1-(4-((2-oxo-1,2-dihydroquinolin-7-yl)oxy)butyl)piperazin-1-ium-1-yl)methyl (2-carboxyethyl) phosphate], the cytotoxicity at 24 h, 300 µM is -7%.
Regarding `CC(C)=CCC/C(C)=C/COP(=O)([O-])OC[N+]1(CCCCOc2ccc3ccc(=O)[nH]c3c2)CCN(c2cccc3sccc23)CC1` [EX 39, (E)-(4-(benzo[b]thiophen-4-yl)-1-(4-((2-oxo-1,2-dihydroquinolin-7-yl)oxy)butyl)piperazin-1-ium-1-yl)methyl (3,7-dimethylocta-2,6-dien-1-yl) phosphate], the cytotoxicity at 24 h, 300 µM was determined as 2%.
In the case of `O=C(OC[N+]1(CCCCOc2ccc3ccc(=O)[nH]c3c2)CCN(c2cccc3sccc23)CC1)N1CCCCC1` [REX 4, 4-(benzo[b]thiophen-4-yl)-1-(4-((2-oxo-1,2-dihydroquinolin-7-yl)oxy)butyl)-1-(((piperidine-1-carbonyl)oxy)methyl)piperazin-1-ium iodide, reference compound] it was 83%; in that of `CCOC(=O)CCCCCOP(=O)([O-])OC[N+]1(CCCCOc2ccc3ccc(=O)[nH]c3c2)CCN(c2cccc3sccc23)CC1` [EX 61, (4-(benzo[b]thiophen-4-yl)-1-(4-((2-oxo-1,2-dihydroquinolin-7-yl)oxy)butyl)piperazin-1-ium-1-yl)methyl (6-ethoxy-6-oxohexyl) phosphate], 5%.
For the compound `CC(C)=CCC/C(C)=C\COP(=O)([O-])OC[N+]1(CCCCOc2ccc3ccc(=O)[nH]c3c2)CCN(c2cccc3sccc23)CC1` [EX 38, (Z)-(4-(benzo[b]thiophen-4-yl)-1-(4-((2-oxo-1,2-dihydroquinolin-7-yl)oxy)butyl)piperazin-1-ium-1-yl)methyl (3,7-dimethylocta-2,6-dien-1-yl) phosphate], the cytotoxicity at 24 h, 300 µM came out at 0%.
In the case of `CC(C)C(=O)OP(=O)([O-])OC[N+]1(CCCCOc2ccc3ccc(=O)[nH]c3c2)CCN(c2cccc3sccc23)CC1` [EX 149, (4-(benzothiophen-4-yl)-1-(4-((2-oxo-1H-quinolin-7-yl)oxy)butyl)piperazin-1-ium-1-yl)methyl 2-methylpropanoyl phosphate] it was -3%; in that of `COCC(=O)OCOP(=O)([O-])OC[N+]1(CCCCOc2ccc3ccc(=O)[nH]c3c2)CCN(c2cccc3sccc23)CC1` [EX 30, (4-(benzo[b]thiophen-4-yl)-1-(4-((2-oxo-1,2-dihydroquinolin-7-yl)oxy)butyl)piperazin-1-ium-1-yl)methyl ((2-methoxyacetoxy)methyl) phosphate], 14%.
Regarding `O=C(OCCCO)OCOP(=O)([O-])OC[N+]1(CCCCOc2ccc3ccc(=O)[nH]c3c2)CCN(c2cccc3sccc23)CC1` [EX 131, (4-(benzo[b]thiophen-4-yl)-1-(4-((2-oxo-1,2-dihydroquinolin-7-yl)oxy)butyl)piperazin-1-ium-1-yl)methyl ((((3-hydroxypropoxy)carbonyl)oxy)methyl) phosphate], the cytotoxicity at 24 h, 300 µM is 10%.
